Experimental findings from US11977068B2, “Method for testing ecotoxicity of disinfection by-products” (priority 2020, dated 2024) are described below.

Series [1] relates to brine shrimp. Briefly: Chronic toxicity test on second-instar brine shrimp (survival/mortality). As for the experimental part:
(§1) S1, anhydrous freeze-dried eggs of a brine shrimp are hatched in artificial seawater to obtain a first-instar brine shrimp, where, a hatching temperature is (26±1)° C., the hatching is performed under a continuous aeration for a hatching time of (10-24) h, and an aeration gas source is air. After the hatching is finished, the first-instar brine shrimp and non-hatched brine shrimp eggs are separated immediately, and the first-instar brine shrimp is placed in the artificial seawater. The brine shrimp at different life stages may have different tolerance to toxicity, and therefore, a separation of the brine shrimp at different instars can avoid the instability of experimental results. S2, the first-instar brine shrimp is cultured in a light incubator for 24 h to obtain a second-instar brine shrimp, where, a culture temperature is (26±1)° C., a light time and a dark time are respectively continuous 12 h, and a light intensity in the light incubator is (1,000-3,000) Lux. S3. First, the second-instar brine shrimp is pre-placed in a water sample to be tested containing toxic substances and exposed for a predetermined time to enable the artificial seawater carried by the second-instar brine shrimp to mix uniformly with the water sample to be tested, and then the second-instar brine shrimp is put into a culture plate containing the water sample to be tested for an acute toxicity test with a time end-point of (42-54) h and a chronic toxicity test with a time end-point of (12-16) days. After the time end-point of the toxicity test is reached, the culture plate is slightly vibrated to observe the survival of the brine shrimp in each well. […] A mortality rate of the brine shrimp is obtained to calculate the toxicity of the water sample to the brine shrimp.
The remaining solution in each brown bottle is poured into a clean 150 mm crystallization dish. […] The culture plate is cultured in light. […] The time difference of transferring brine shrimps within and between groups should be shortened as far as possible to avoid the influence of excessive time difference on brine shrimp growth.

Series [2] concerns brine shrimp. Briefly: Acute toxicity test on second-instar brine shrimp (survival/mortality). The note with it: for minimum effective concentration (defined as the concentration causing 20% death): second-instar brine shrimp. As for the experimental part:
as §1
(§2) Hatching of a brine shrimp: 3-5 g of anhydrous freeze-dried eggs of the brine shrimp is put into a 1,500 mL beaker containing 1,200 mL of seawater. The opening of the beaker is sealed with aluminum foil and the beaker is placed in a constant temperature water bath at (26±1)° C. A small air pump is used to blow air for aeration and hatching for 12 h. After the hatching is finished, the first-instar brine shrimp is randomly picked out with a Pasteur pipette immediately and placed in a 150 mm crystallization dish containing sufficient seawater.
(§3) Culture of the brine shrimp: the first-instar brine shrimp is cultured in a light incubator for 24 h. The conditions in the light incubator are as follows: a temperature is (25±1)° C., a light intensity is 1,000 Lux, and a light time and a dark time are respectively continuous 12 h.
(§4) Acute toxicity test: 150 mL of each water sample to be tested is put into a brown bottle, four groups of the water samples with different concentrations of IAM are added into a 12-well culture plate with a pipette, with 2.5 mL of liquid in each well, and each 3 wells is an experimental group with the same concentration of the water samples. The remaining solution in each brown bottle is poured into a clean 150 mm crystallization dish. At least 30 second-instar brine shrimps are transferred into 100-150 mL of the water sample to be tested at one time by the Pasteur pipette in the crystallizing dish, respectively. The second-instar brine shrimps that have been exposed to the solution are transferred by the Pasteur pipette to the culture wells with 10 second-instar brine shrimps in each well. The culture plate is cultured in light. The survival of the brine shrimps in each well is observed after 48 h. The time difference of transferring brine shrimps within and between groups should be shortened as far as possible to avoid the influence of excessive time difference on brine shrimp growth.

Experiment in series [3]: as above
The conditions noted are these: brine shrimp (Artemia), in vivo, other: immersion in the water sample in culture wells. As for the experimental part:
as §1, §2, §3, §4

As a reminder, the LC50 is the concentration that kills 50% of the test population. Low readings indicate greater toxicity, high ones lower toxicity.

The structures appear in SMILES notation.

Take `O=C(O)CI` [IAA, iodoacetic acid]: the mortality rate in series [1] (59.588 μM (acute minimum effective concentration), 16 days exposure) is given as 100%. The “survival rate of brine shrimp” value in series [1] (59.588 μM, 16 days exposure) is recorded as 0. In series [2] (59.588 μM, 54 h), the “impact on the survival of brine shrimp in a short period” value is “does not cause significant impact on the survival”. Besides, the “minimum effective concentration (defined as the concentration causing 20% death)” value in series [2] (54 h exposure, fitted from FIG. 3 data) came out at 59.588 µM. The compound also gave an LC50 at 54 h in series [3] of 1050 µM.

`NC(=O)CI` [IAM, iodoacetamide] yielded a mortality rate in series [1] (544.5 μM (acute minimum effective concentration), 14 days exposure) of 100%. Also, the “survival rate of brine shrimp” value in series [1] (544.5 μM, 14 days exposure) is given as 0. Besides, the “impact on the survival of brine shrimp in a short period” value in series [2] (544.5 μM, 48 h) is on record as “does not cause significant impact on the survival”. For the same compound, the “minimum effective concentration (defined as the concentration causing 20% death)” value in series [2] (48 h exposure, fitted from FIG. 2 data) was 544.5 µM. This compound also displayed an LC50 at 48 h in series [3] of 557 µM.
